From publication PMC2873071 (Nature chemical biology, 2010)

Target: T1, glucocerebrosidase (GC; Cerezyme, recombinant WT GC) (Homo sapiens, UniProt P04062)
T1 sequence (P04062 40-536): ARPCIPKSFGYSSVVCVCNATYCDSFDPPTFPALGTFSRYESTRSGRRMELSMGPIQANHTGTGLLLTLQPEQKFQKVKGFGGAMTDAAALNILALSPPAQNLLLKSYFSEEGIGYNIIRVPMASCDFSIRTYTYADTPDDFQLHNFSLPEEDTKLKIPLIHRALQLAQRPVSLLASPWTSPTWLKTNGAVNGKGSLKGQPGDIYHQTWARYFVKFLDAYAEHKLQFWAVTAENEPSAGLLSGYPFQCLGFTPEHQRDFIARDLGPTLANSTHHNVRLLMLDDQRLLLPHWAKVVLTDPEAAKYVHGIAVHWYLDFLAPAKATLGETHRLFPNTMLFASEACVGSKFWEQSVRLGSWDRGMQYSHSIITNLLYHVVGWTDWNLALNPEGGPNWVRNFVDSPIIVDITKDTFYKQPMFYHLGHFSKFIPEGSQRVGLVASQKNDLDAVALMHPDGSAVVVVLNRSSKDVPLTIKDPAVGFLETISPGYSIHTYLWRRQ
Test: in vitro enzyme inhibition assay with recombinant GC
Assay type: biochemical

- IC50: ~90 µM
Compound: O=C1CN(/N=C/c2ccc(-c3ccc([N+](=O)[O-])cc3)o2)C(O)=N1 [compound 3, dantrolene]
